From patent US8628767B2, “Purine nucleoside phosphorylase as enzymatic activator of nucleoside prodrugs” (priority 2008, dated 2014)

Key:
E. coli PNP = E. coli PNP (Escherichia coli, UniProt P0ABP8); experiment: Substrate cleavage by wild-type E. coli PNP (HPLC); type: biochemical; conditions: 100 micromolar substrate, HPLC separation of base from nucleoside
Description: (§1) The method quantitatively measures the cleavage of substrates in vitro. The purine analog nucleosides (0.1 mM in 500 μl of 100 mM HEPES, pH 7.4, 50 mM potassium phosphate) are combined with 100 μg/ml Tv-PNP or wild-type E. coli PNP. The reaction mixtures are incubated at 25° C. for 1 hour, and the reactions stopped by boiling each sample for 2 minutes. Protein concentration and time of assay are varied depending on activity of enzyme for a particular substrate. Each sample is analyzed by reverse phase HPLC to measure conversion from substrate to product. The nucleoside and purine analogs are eluted from a Spherisorb ODSI (5 μm) column (Keystone Scientific, Inc., State College, Pa.) with a solvent containing 50 mM ammonium dihydrogen phosphate (95%) and acetonitrile (5%). Products are detected by absorbance at 254 nm, and are identified by comparing their retention times and absorption spectra with authentic control samples.
Numerous compounds are tested for efficiency as substrate for Tv-PNP in parallel comparison with E. coli PNP. […] The enzymes are incubated with 100 micromolar of each compound listed in the table and the rate of enzymatic cleavage is determined by HPLC separation of the base from the nucleoside.

T. vaginalis PNP = experiment: Substrate cleavage by wild-type Tv-PNP (HPLC); type: biochemical, Trichomonas vaginalis; conditions: for rate of enzymatic cleavage by T. vaginalis PNP: 100 micromolar substrate, HPLC separation of base from nucleoside; for activity of Tv-PNP as compared to wild-type E. coli PNP: summary of Table 1
Description: as §1
Numerous compounds are tested for efficiency as substrate for Tv-PNP in parallel comparison with E. coli PNP. The compounds include various analogs of adenosine, of inosine, of MeP-dR, and of fluoro- or chloro-substituted adenosine. The enzymes are incubated with 100 micromolar of each compound listed in the table and the rate of enzymatic cleavage is determined by HPLC separation of the base from the nucleoside. […] It is appreciated that the greater biological activity of the Tv-PNP enzyme allows for greater activity in impairing abnormal cell growth when the Tv-PNP is used for treatment of pathological conditions using F-araA as a prodrug substrate.

E. coli PNP, sequence (P0ABP8 whole entry): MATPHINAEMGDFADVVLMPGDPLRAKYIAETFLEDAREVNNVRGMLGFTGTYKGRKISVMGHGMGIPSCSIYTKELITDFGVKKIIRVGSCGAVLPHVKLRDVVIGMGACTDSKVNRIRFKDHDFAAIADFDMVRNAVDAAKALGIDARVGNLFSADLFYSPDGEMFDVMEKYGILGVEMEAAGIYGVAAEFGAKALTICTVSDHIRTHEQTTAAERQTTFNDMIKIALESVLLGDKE

Compound	rate of enzymatic cleavage by E. coli PNP (E. coli PNP)	rate of enzymatic cleavage by T. vaginalis PNP (T. vaginalis PNP)	activity of Tv-PNP as compared to wild-type E. coli PNP (T. vaginalis PNP)	rate of enzymatic cleavage by E. coli PNP (E. coli PNP; listed as Cl-dAdo)	rate of enzymatic cleavage by T. vaginalis PNP (T. vaginalis PNP; listed as Cl-dAdo)
Cc1ncnc2c1ncn2[C@@H]1O[C@@H](CO)[C@@H](O)[C@H]1O [9-α-L-lyxofuranosyl-6-methylpurine]	320 nanomoles per milligrams per hour	10,000 nanomoles per milligrams per hour			
Cc1ncnc2c1ncn2[C@H]1C[C@H](O)[C@@H]([C@H](C)O)O1 [9-[5-methyl-(talo)-2-deoxy-β-D-ribofuranosyl]-6-methylpurine]	3,600 nanomoles per milligrams per hour	103,000 nanomoles per milligrams per hour	more activity		
Nc1nc(Cl)nc2c1ncn2[C@H]1C[C@H](O)[C@@H](CO)O1 [2-Cl-2′-deoxyadenosine (Cl-dAdo), 2-chloro-2′-deoxyadenosine, reference compound]	39,000 nanomoles per milligrams per hour	352,000 nanomoles per milligrams per hour	more activity	39,000 nanomoles per milligrams per h	320,000 nanomoles per milligrams per h
Nc1ncnc2c1ncn2[C@@H]1O[C@H](CO)[C@@H](O)[C@H]1O [Adenosine, reference compound]		501,000 nanomoles per milligrams per hour			
Cc1ncnc2c1ncn2[C@@H]1C[C@H](O)[C@@H](CO)O1 [9-[2-deoxy-α-D-ribofuranosyl]-6-methylpurine]	<1 nanomoles per milligrams per hour	<8 nanomoles per milligrams per hour			
Cc1ncnc2c1ncn2[C@@H]1O[C@H](CO)[C@@H](O)[C@H]1O [9-β-D-ribofuranosyl-6-methylpurine]	96,000 nanomoles per milligrams per hour	155,000 nanomoles per milligrams per hour			
Nc1ncnc2c1ncn2[C@@H]1O[C@@H](CO)[C@@H](O)[C@H]1O [9-α-L-lyxofuranosyl-adenine]	3,700 nanomoles per milligrams per hour	22,000 nanomoles per milligrams per hour			
Cc1ncnc2ncn([C@H]3C[C@H](O)[C@H](CO)O3)c12 [7-[2-deoxy-α-L-lyxofuranosyl]-6-methylpurine]	<1 nanomoles per milligrams per hour	<8 nanomoles per milligrams per hour			
Nc1ncnc2c1ncn2[C@@H]1O[C@H](CO)C[C@H]1O [3′-deoxyadenosine (cordycepin), 3′-deoxyadenosine, reference compound]	<2 nanomoles per milligrams per hour	2,000 nanomoles per milligrams per hour			
C[C@H]1O[C@@H](n2cnc3c(N)ncnc32)[C@H](O)[C@@H]1O [5′-deoxyadenosine]	8,400 nanomoles per milligrams per hour	50,000 nanomoles per milligrams per hour			
Cc1ncnc2c1ncn2[C@@H]1O[C@H]([C@@H](C)O)[C@@H](O)[C@H]1O [9-[5-methyl-(allo)-β-D-ribofuranosyl]-6-methylpurine]	47 nanomoles per milligrams per hour	223 nanomoles per milligrams per hour	more activity		
Cc1ncnc2c1ncn2[C@@H]1O[C@H](C(C)(C)O)[C@@H](O)[C@H]1O [9-[5,5-dimethyl-β-D-ribofuranosyl]-6-methylpurine]	<1 nanomoles per milligrams per hour	<8 nanomoles per milligrams per hour			
O=c1[nH]cnc2ncn([C@@H]3O[C@H](CO)[C@@H](O)[C@H]3O)c12 [7-β-D-ribosyl-hypoxanthine]	5,200 nanomoles per milligrams per hour	2,300 nanomoles per milligrams per hour			
Nc1nc2ncn([C@@H]3O[C@H](CO)[C@@H](O)[C@H]3O)c2c(=S)[nH]1 [7-β-D-ribosyl-6-thioguanine]	66 nanomoles per milligrams per hour	435 nanomoles per milligrams per hour			
Nc1nc(F)nc2c1ncn2[C@@H]1O[C@@H](CO)[C@@H](O)[C@H]1O [9-α-L-lyxofuranosyl-2-F-adenine, 9-(α-L-lyxofuranosyl)-2-fluoroadenine]	7,800 nanomoles per milligrams per hour	28,200 nanomoles per milligrams per hour	more activity		
9-β-D-pyranosyl-adenine	<1 nanomoles per milligrams per hour	2 nanomoles per milligrams per hour			
Cc1ncnc2c1ncn2[C@@H]1O[C@H](C)[C@@H](O)[C@H]1O [9-[5-deoxy-β-D-ribofuranosyl]-6-methylpurine]	406 nanomoles per milligrams per hour	3,600 nanomoles per milligrams per hour			
Nc1nc(Cl)nc2c1ncn2[C@H]1C[C@H](O)[C@@H](CO)O1 [2-Cl-2′-deoxyadenosine (α-L), 2-Cl-2′-deoxyadenosine]	<1 nanomoles per milligrams per hour	<8 nanomoles per milligrams per hour			
Nc1nc2c(ncn2[C@@H]2O[C@H](CO)[C@@H](O)[C@H]2O)c(=O)[nH]1 [Guanosine, reference compound]	156,000 nanomoles per milligrams per hour	14,000 nanomoles per milligrams per hour			
Nc1ncnc2c1ncn2[C@@H]1O[C@H](CO)[C@@H](O)[C@@H]1O [9-β-D-arabinofuranosyl-adenine]	610 nanomoles per milligrams per hour	38,000 nanomoles per milligrams per hour			
NC[C@H]1O[C@@H](n2cnc3c(N)ncnc32)[C@H](O)[C@@H]1O [5′-amino-5′-deoxyadenosine]	540 nanomoles per milligrams per hour	4,200 nanomoles per milligrams per hour			
Nc1nc(Cl)nc2c1ncn2[C@H]1C[C@H](O)[C@@H](CO)O1 [2-Cl-2′-deoxyadenosine (β-L), 2-Cl-2′-deoxyadenosine]	<1 nanomoles per milligrams per hour	<8 nanomoles per milligrams per hour			
Nc1ncnc2c1ncn2[C@H]1CC[C@@H](CO)O1 [2′,3′-dideoxyadenosine]	<2 nanomoles per milligrams per hour	640 nanomoles per milligrams per hour			
Nc1ncnc2c1ncn2[C@@H]1O[C@H](CO)[C@H](O)[C@H]1O [9-β-D-xylofuranosyl-adenine]	<2 nanomoles per milligrams per hour	2 nanomoles per milligrams per hour			
Cc1ncnc2c1ncn2[C@@H]1O[C@H](CO)[C@@H](O)[C@@H]1O [9-[β-D-arabinofuranosyl]-6-methylpurine]	14 nanomoles per milligrams per hour	570 nanomoles per milligrams per hour			
C[C@H]1O[C@@H](n2cnc3c(N)nc(F)nc32)[C@H](O)[C@@H]1O [2-F-5′-deoxy-adenosine, 2-fluoro-5′-deoxyadenosine]	29,000 nanomoles per milligrams per hour	50,000 nanomoles per milligrams per hour	more activity		
Cc1ncnc2c1ncn2[C@@H]1O[C@@H](C)[C@@H](O)[C@H]1O [9-[5-deoxy-α-L-lyxofuranosyl]-6-methylpurine]	20 nanomoles per milligrams per hour	246 nanomoles per milligrams per hour			
Nc1nc(F)nc2c1ncn2[C@@H]1O[C@H](CO)[C@@H](O)[C@H]1O [2-F-adenosine]	215,000 nanomoles per milligrams per hour	185,000 nanomoles per milligrams per hour			
NC(=O)[C@H]1O[C@@H](n2cnc3c(N)ncnc32)[C@H](O)[C@@H]1O [5′-carboxamide of adenosine]	<1 nanomoles per milligrams per hour	33 nanomoles per milligrams per hour			
Cc1ncnc2c1ncn2[C@@H]1O[C@@H](CI)[C@@H](O)[C@H]1O [9-[5-deoxy-5-iodo-α-L-lyxofuranosyl]-6-methylpurine]	<1 nanomoles per milligrams per hour	<8 nanomoles per milligrams per hour			
